# From US20130078224A1, “INDUCTION/MONITORING OF ARTERIOGENESIS USING SDF1 AND PDGFB OR INHIBITION OF PHD2” (LIFE SCIENCES RESEARCH PARTNERS VZW, priority 2010, published 2013)
# How the values were obtained:
# [1] = early clinical trials in myocardial infarction; cited from earlier work
# PDGFB, SDF1, and Tie2 = test: Gene expression (qRT-PCR) in PHD2Rosa26CreERT;lox/wt peritoneal macrophages after 4-OHT; assay type: cell-based, mice; conditions: 2 μM, 48 hours
# Description: Macrophage Preparation: To harvest peritoneal macrophages (pMØ), the peritoneal cavity was washed with 5 ml of RPMI 10% FBS. The pooled cells were then seeded in RPMI 10% FBS in six-well plates (2×10^6 cells/well), twelve-well plates (1×10^6 cells/well), or 24-well plates (5×10^5 cells/well). After six hours of incubation at 37° C. in a moist atmosphere of 5% CO2 and 95% air, non-adhering cells on each plate were removed by rinsing with phosphate-buffered saline (PBS). The attached macrophages were cultured in different mediums for 12 hours or 48 hours, depending on the experiments performed, as described below. When high amounts of cells were needed (analysis for HIF accumulation and NF-κB activity), macrophages were derived from bone marrow precursors as described before (Meerpohl et al., Eur. J. Immuno. 6:213-7, 1976). Briefly, bone marrow cells (2×10^6 cells/ml) were cultured in a volume of 5 ml in a 10 cm Petri dish (non-tissue culture-treated, bacterial grade) for ten days in DMEM supplemented with 20% FBS and 30% L929 conditioned medium as a source of M-CSF. The cells obtained in those cultures are uniformly macrophages. […]
# Quantitative PCR Analysis: In order to investigate gene expression in pMØ, quantitative RT-PCR (qRT-PCR) was performed. […] Quantitative RT-PCR was perfouned with commercially available or homemade primers and probes for the studied genes. […]
# F4/80+Tie2+ cells = test: Deletion of TEMs by GCV in Tie2:tk-BMT mice (F4/80 and Tie2 double staining of adductor); assay type: in vivo; conditions: GCV 50 mg/kg daily
# [2] = system: secondary and tertiary collateral arteries; test: Collateralization and ischemic necrosis in Tie2:tk-BMT mice after GCV; assay type: in vivo; conditions: PHD2+/- Tie2:tk-BMT mice
# NF-κB [3] = test: NF-κB-responsive luciferase reporter assay in primary lung endothelial cells; assay type: cell-based, mice; conditions: WT and PHD2+/- ECs, TNF-α 20 ng/mL, eight hours
# Description: Transduction and Transfection of Bone Marrow-Derived Macrophages and Lung Endothelial Cells: To express an inducible NF-κB responsive firefly luciferase reporter, commercially available lentiviral vector particles (LV) were used (Cignal Lenti NF-κB Reporter; SABiosciences). 2.5×10^5 bone marrow-derived macrophages and 10^5 primary lung endothelial cells (isolated as previously described (Mazzone et al., 2009, see above)) were seeded in a 24-well plate in DMEM 10% FBS or M199 20% FBS for eight hours. Cells were transduced with 10^8 TU/ml. Eight hours after transduction, the medium wash was replaced. After 48 hours, cells were stimulated with TNFα (20 ng/mL) for eight hours and the same amount of protein extract was read in a luminometer. For PHD3 silencing, siRNA oligonucleotides were designed using the Invitrogen online siRNA design tool (world wide web at maidesigner.invitrogen.com). The following sequences (sense strands) and target positions were used: PHD3 siRNA: 5′-[…]-3′ (SEQ ID NO:1); scramble siRNA:5′-[…]-3′ (SEQ ID NO:2). In brief, one day after the transduction of macrophages with LV, cells were transfected using Lipofectamine 2000 (Invitrogen) according to the manufacturer's instructions. Preparation of the oligonucleotide-Lipofectamine 2000 complexes was done as followed: 25 pmol siRNA oligonucleotide (stock: 20 μM) was diluted in 50 μl Opti-MEM I reduced serum medium. […]
# NF-κB [4] = test: NF-κB-responsive firefly luciferase reporter assay in bone marrow-derived macrophages; assay type: cell-based, mice; conditions: PHD2 haplodeficient vs WT macrophages
# Description: Transduction and Transfection of Bone Marrow-Derived Macrophages and Lung Endothelial Cells: To express an inducible NF-κB responsive firefly luciferase reporter, commercially available lentiviral vector particles (LV) were used (Cignal Lenti NF-κB Reporter; SABiosciences). 2.5×10^5 bone marrow-derived macrophages and 10^5 primary lung endothelial cells (isolated as previously described (Mazzone et al., 2009, see above)) were seeded in a 24-well plate in DMEM 10% FBS or M199 20% FBS for eight hours. Cells were transduced with 10^8 TU/ml. Eight hours after transduction, the medium wash was replaced. After 48 hours, cells were stimulated with TNFα (20 ng/mL) for eight hours and the same amount of protein extract was read in a luminometer. For PHD3 silencing, siRNA oligonucleotides were designed using the Invitrogen online siRNA design tool (world wide web at maidesigner.invitrogen.com). The following sequences (sense strands) and target positions were used: PHD3 siRNA: 5′-[…]-3′ (SEQ ID NO:1); scramble siRNA:5′-[…]-3′ (SEQ ID NO:2). In brief, one day after the transduction of macrophages with LV, cells were transfected using Lipofectamine 2000 (Invitrogen) according to the manufacturer's instructions. Preparation of the oligonucleotide-Lipofectamine 2000 complexes was done as followed: 25 pmol siRNA oligonucleotide (stock: 20 μM) was diluted in 50 μl Opti-MEM I reduced serum medium. Lipofectamine 2000 (1.5 μl) was diluted in 50 μl Opti-MEM I reduced serum medium and incubated for five minutes at room temperature. siRNA oligonucleotides were gently mixed with Lipofectamine 2000 and allowed to incubate at room temperature for twenty minutes to form complexes. Just before transfection, the cell culture medium was removed and cells were rinsed twice with serum-free Opti-MEM I medium. The Lipofectamine 2000-siRNA oligonucleotide complexes were added to each well in 400 μl of serum-free Opti-MEM medium for five hours. Afterwards, cells were incubated in complete medium for 48 hours at 37° C. in a CO2 incubator and assayed for gene knockdown (qRT-PCR) and luciferase activity. To assess if the increased NFkB activity observed in PHD2^+/− macrophages was dependent on the hydroxylase activity of PHD2, 48 hours before transduction, 4×10^6 bone marrow-derived macrophages were resuspended in 240 μl of Opti-MEM and were electroporated (250 V, 950 uF, ∝ Ω) with 7 μg of plasmids expressing a wild-type PHD2 (PHD2^wt) or a PHD2 containing a mutation at the catalytic site (PHD2^H313A).
# Tie2, PDGFB and SDF1 = test: Expression of PDGFB, SDF1 and Tie2 (qPCR) in monocytes/macrophages upon angiopoietin-1; assay type: cell-based, mice; conditions: monocytes/macrophages after angiopoietin-1 stimulation (50 and 250 ng/ml)
# Description: (§1) Quantitative PCR Analysis: In order to investigate gene expression in pMØ, quantitative RT-PCR (qRT-PCR) was performed. After preparing pMØ, the cells were cultured in normoxic condition for twelve hours, and the RNA was extracted. To analyze the gene profile of adductor, gastrocnemius, and soleus muscle, tissues were collected at baseline or 24 hours/72 hours post-ischemia and RNA was extracted. Macrophages and ECs were freshly sorted from dissected adductors as described below and RNA was extracted. Quantitative RT-PCR was perfouned with commercially available or homemade primers and probes for the studied genes. The assay ID (Applied Biosystems, Foster City, Calif.) or the sequence of primers and probes (when homemade) are listed in Table 5. RNA levels of Tie-2, SDF1 and PDGFB after inhibition of NF-κB pathway were measured by qRT-PCR on pMØ exposed for twelve hours to 500 nM 6-amino-4-(4-phenoxyphenylethylamino)quinazoline. To evaluate PHD2 levels on monocyte/macrophage cultures, 2.5×10^5 bone marrow-derived monocytes/macrophages (see above) were seeded in a 24-well plate in DMEM 10% FBS and stimulated with 50 ng/ml angiopoietin-1 (Peprotech) or 50 ng/ml angiopoietin-2 (Prospec). After 24 hours, cells were harvested for RNA extraction and cDNA preparation.
# PHD2 = PHD2 expression (qPCR) in bone marrow-derived monocyte/macrophage cultures upon cytokine stimulation; assay type: cell-based, mice
# Description: as §1, with “To evaluate PHD2 levels on monocyte/macrophage cultures, 2.5×10^5 bone marrow-derived monocytes/macrophages (see above) were seeded in a 24-well plate in DMEM 10% FBS and stimulated with 50 ng/ml angiopoietin-1 (Peprotech) or 50 ng/ml angiopoietin-2 (Prospec).” left out
molecule,measurement,setting,value
C[C@H]1C[C@@H]2[C@H]([C@@H](O)C[C@@]3(C)[C@H]2CC[C@]3(O)C(=O)CO)[C@@]2(C)C=CC(=O)C=C12 [methylprednisolone],mortality due to left ventricle rupture,[1],drastically increased mortality
4-hydroxytamoxifen,"expression of PDGFB, SDF1, and Tie2","PDGFB, SDF1, and Tie2",increased expression
"Nc1nc(O)c2ncn(COC(CO)CO)c2n1 [GCV, ganciclovir]",reduction of density of F4/80+Tie2+ cells,"F4/80+Tie2+ cells; PHD2+/- Tie2:tk-BMT mice, 72 hours post-ischemia",68±5%
same,reduction of density of F4/80+Tie2+ cells,"F4/80+Tie2+ cells; PHD2+/- Tie2:tk-BMT mice, baseline",58±11%
same,reduction of density of F4/80+Tie2+ cells,"F4/80+Tie2+ cells; WT Tie2:tk-BMT mice, 72 hours post-ischemia",39±6%
same,reduction of density of F4/80+Tie2+ cells,"F4/80+Tie2+ cells; WT Tie2:tk-BMT mice, baseline",46±10%
same,ischemic protection (fiber necrosis),[2]; 72 hours after ligation,abolished ischemic protection
same,formation of secondary and tertiary collateral arteries,"[2]; baseline, vs untreated group",completely prevented
TNF-α,NF-κB activity,NF-κB [3],increases to the same level
same,TNF-α-induced NF-κB activation,NF-κB [4],significantly stronger
"angiopoietin-1: Tie2 ligand cytokine (Peprotech) (protein, UniProt Q15389 16-498, looked up) Angiopoietin-1: HIGCSNQRRSPENSGRRYNRIQHGQCAYTFILPEHDGNCRESTTDQYNTNALQRDAPHVEPDFSSQKLQHLEHVMENYTQWLQKLENYIVENMKSEMAQIQQNAVQNHTATMLEIGTSLLSQTAEQTRKLTDVETQVLNQTSRLEIQLLENSLSTYKLEKQLLQQTNEILKIHEKNSLLEHKILEMEGKHKEELDTLKEEKENLQGLVTRQTYIIQELEKQLNRATTNNSVLQKQQLELMDTVHNLVNLCTKEGVLLKGGKREEEKPFRDCADVYQAGFNKSGIYTIYINNMPEPKKVFCNMDVNGGGWTVIQHREDGSLDFQRGWKEYKMGFGNPSGEYWLGNEFIFAITSQRQYMLRIELMDWEGNRAYSQYDRFHIGNEKQNYRLYLKGHTGTAGKQSSLILHGADFSTKDADNDNCMCKCALMLTGGWWFDACGPSNLNGMFYTAGQNHGKLNGIKWHYFKGPSYSLRSTTMMIRPLDF","expression of Tie2, PDGFB and SDF1","Tie2, PDGFB and SDF1",increased expression
same,"PHD2 levels down-regulated, dose-dependent, up to",PHD2; WT monocytes/macrophages,50 % of the basal levels
same,PHD2 down-modulation in monocytes/macrophages,PHD2; after angiopoietin-1 stimulation,40%
